Reference: ChEMBL document CHEMBL3994651, “Physapubescin, a natural withanolide as a kidney-type glutaminase (KGA) inhibitor” (Bioorg Med Chem Lett, 2017)
Activity calls are given as the source filed them. The calls are words filed in the database; no cut-off is given here.

Key:
[1] = molecular target: T1, Glutaminase kidney isoform, mitochondrial (Homo sapiens, UniProt O94925); assay: Inhibition of recombinant KGA (unknown origin) using glutamine as substrate
T1 sequence (O94925 whole entry): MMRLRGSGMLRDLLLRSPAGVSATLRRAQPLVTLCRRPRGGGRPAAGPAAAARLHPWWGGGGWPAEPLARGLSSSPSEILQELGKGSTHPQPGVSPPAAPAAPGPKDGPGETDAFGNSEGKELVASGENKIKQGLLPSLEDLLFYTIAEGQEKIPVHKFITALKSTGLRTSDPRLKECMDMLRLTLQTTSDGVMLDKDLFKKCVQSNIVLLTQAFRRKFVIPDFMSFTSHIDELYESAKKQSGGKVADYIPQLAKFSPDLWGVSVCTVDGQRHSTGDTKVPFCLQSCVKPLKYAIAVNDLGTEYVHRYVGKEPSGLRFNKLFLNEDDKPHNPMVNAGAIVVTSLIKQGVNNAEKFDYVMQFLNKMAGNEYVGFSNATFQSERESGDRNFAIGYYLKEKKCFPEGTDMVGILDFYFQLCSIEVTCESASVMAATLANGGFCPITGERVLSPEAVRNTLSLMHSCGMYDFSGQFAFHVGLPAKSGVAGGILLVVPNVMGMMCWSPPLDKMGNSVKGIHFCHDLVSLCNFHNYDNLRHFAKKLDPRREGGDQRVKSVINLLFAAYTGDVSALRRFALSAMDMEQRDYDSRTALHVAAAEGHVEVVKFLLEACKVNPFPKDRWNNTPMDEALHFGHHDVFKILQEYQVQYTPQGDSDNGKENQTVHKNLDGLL

HCC827 = assay: Cytotoxicity against human erlotinib-resistant HCC827 cells assessed as growth inhibition after 48 hrs by CCK8 assay; type: functional, cell-based; conditions: HCC827, 48 h
HT-1080 = assay: Cytotoxicity against human HT1080 cells assessed as growth inhibition after 48 hrs by CCK8 assay; type: functional, cell-based; conditions: HT-1080, 48 h
L929 = assay: Cytotoxicity against mouse L929 cells assessed as growth inhibition after 48 hrs by CCK8 assay; type: cell-based; conditions: L929, 48 h
Vero = assay: Cytotoxicity against monkey Vero cells assessed as growth inhibition after 48 hrs by CCK8 assay; type: cell-based; conditions: Chlorocebus sabaeus
[2] = molecular target: T2, Glutaminase kidney isoform, mitochondrial (Homo sapiens) (UniProt O94925); assay: Competitive inhibition of recombinant KGA (unknown origin) at 40 uM using varying levels of glutamine substrate measured within 1 to 4 mins
T2 sequence (whole entry): T1 sequence (O94925 whole entry)

[3] = molecular target: T1, Glutaminase kidney isoform, mitochondrial; assay: Binding affinity to NT-647-NHS-labelled KGA (unknown origin) after 10 mins by microscale thermophoresis method
L02 = assay: Cytotoxicity against human LO2 cells assessed as growth inhibition after 48 hrs by CCK8 assay; type: cell-based; conditions: L02, 48 h

| SMILES | IC50 [1] [µM] | inhibition [2] | Kd [3] [µM] | IC50 (HCC827) [µM] | IC50 (HT-1080) [µM] | IC50 (L929) [µM] | IC50 (Vero) [µM] | IC50 (L02) [µM] |
| --- | --- | --- | --- | --- | --- | --- | --- | --- |
| C[C@@H]([C@H]1CC[C@H]2[C@@H]3CC=C4C[C@@H](O[C@@H]5O[C@H](CO[C@@H]6O[C@H](CO)[C@@H](O)[C@H](O)[C@H]6O)[C@@H](O)[C@H](O)[C@H]5O)C[C@H](O)[C@]4(C)[C@H]3CC[C@]12C)[C@H]1C[C@@](C)(O)[C@](C)(O)C(O)O1 (some centres not stated) | > 100 |  |  | > 200 | > 200 |  |  |  |
| O=C(Cc1cccc(OC(F)(F)F)c1)Nc1ccc(CCCCc2nnc(NC(=O)Cc3ccccn3)s2)nn1 |  |  |  | 51.4 | 44.4 |  |  |  |
| CC(=O)O[C@H]1C[C@H]([C@H](C)[C@H]2C[C@]3(C)O[C@]3(C)[C@H](O)O2)[C@@]2(C)CC[C@H]3[C@@H](C[C@@H]4O[C@]45[C@@H](O)C=CC(=O)[C@]35C)[C@H]12 | 9.89 | Active | 4.95 | 2.76 | 6.99 | 10.4 | 12.4 | 10.4 |
| O=C(Cc1ccccc1)Nc1nnc(CCSCCc2nnc(NC(=O)Cc3ccccc3)s2)s1 |  |  |  | 42.4 | 47.7 |  |  |  |

More lines, main results first:

| IC50 [1] [µM] | inhibition [2] | Kd [3] [µM] | SMILES | IC50 (HCC827) [µM] | IC50 (HT-1080) [µM] | IC50 (L929) [µM] | IC50 (Vero) [µM] | IC50 (L02) [µM] |
| --- | --- | --- | --- | --- | --- | --- | --- | --- |
| > 100 |  |  | C[C@@H]([C@H]1CC[C@H]2[C@@H]3CC=C4C[C@@H](O)C[C@H](O)[C@]4(C)[C@H]3CC[C@]12C)[C@H]1C[C@@](C)(O)[C@](C)(O)C(O)O1 (some centres not stated) | > 200 | > 200 |  |  |  |
| > 100 |  |  | CO[C@@H]1O[C@@H]([C@@H](C)[C@H]2CC[C@H]3[C@@H]4CC=C5C[C@@H](O[C@@H]6O[C@H](CO[C@@H]7O[C@H](CO)[C@@H](O)[C@H](O)[C@H]7O)[C@@H](O)[C@H](O)[C@H]6O)C[C@H](O)[C@]5(C)[C@H]4CC[C@]23C)C[C@](C)(OC)[C@]1(C)O | > 200 | > 200 |  |  |  |
| > 100 |  |  | C[C@@H]([C@H]1CC[C@H]2[C@@H]3CC=C4C[C@@H](O[C@@H]5O[C@H](CO[C@@H]6O[C@H](CO)[C@@H](O)[C@H](O)[C@H]6O)[C@@H](O)[C@H](O)[C@H]5O)C[C@H](O)[C@]4(C)[C@H]3CC[C@]12C)[C@H]1C[C@](C)(O)[C@](C)(O)C(=O)O1 | > 200 | > 200 |  |  |  |
| > 100 |  |  | C[C@@H]([C@H]1CC[C@H]2[C@@H]3CC=C4C[C@@H](O)C[C@H](O)[C@]4(C)[C@H]3CC[C@]12C)[C@H]1C[C@](C)(O)[C@](C)(O)C(=O)O1 | > 200 | > 200 |  |  |  |
